From paper PMC6271632, “Tryptophan as a Probe to Study the Anticancer Mechanism of Action and Specificity of α-Helical Anticancer Peptides” (Molecules, 2014)

Legend:
[1] = Isothermal titration calorimetry with DMPC LUVs; type: binding; conditions: ITC, 25 °C
Procedure: The interaction of the peptides PNW and PCW with phospholipids was investigated using ITC at 25 °C, in which DMPC or DMPS LUVs were injected into an ITC cell containing peptide solutions of PNW or PCW. Based on the tryptophan fluorescence and quenching experiments, PNW and PCW could cover the trend of peptide-membrane interaction, thus, PMW was not included in the liposome experiments. The interaction of peptides with phospholipid bilayer membrane is entropy-driven. […] It is clear to see that the endothermic heat flow decreased with the increase of the number of injections and the free peptide concentration in the cell decreased simultaneously. The endothermic binding reaction of peptide PNW ceased after 20 injections, when all of peptide in bulk bound to DMPC LUVs (Figure 4A) and the further addition of DMPC LUVs caused dilution heat. However, the endothermic binding reaction of PCW ceased after 22 injections.
To mimic cancer cell and normal cell membranes, desired phospholipid powders were mixtured under certain ratios. Phospholipid mixtures were dissolved in chloroform, dried by N2 flow, and then vacuumed overnight to remove the trace of organic solvents. […] The phospholipid concentrations were determined by phosphorus analysis. […]

HeLa cells = type: cell-based, Human; conditions: 1 h
Procedure: The MTT assay has been used to test cytotoxicity of reagents and cell viability. Human cervix carcinoma cells (HeLa cells) were seeded in 96-well plates and incubated with serially 2-fold diluted concentration of different peptides (μM) for 1 h at 37 °C. As a negative control, cells were cultured without addition of the peptides. Thereafter, 20 μL of 5 mg/mL MTT solution in PBS were added to cells and treated for 4 h at 37 °C. The formazan crystals were dissolved by adding 150 μL dimethyl sulfoxide (DMSO) just before spectrometric determination. The absorbance was determined at 490 nm. The results were expressed as IC50, representing the concentration at which cell ability was reduced by 50%. The cytotoxicity assays were repeated in triplicates.

[2] = Isothermal titration calorimetry with DMPS LUVs; type: binding; conditions: ITC, 25 °C, 10 mM HEPES, 150 mM NaCl pH 7.0
Procedure: To mimic cancer cell and normal cell membranes, desired phospholipid powders were mixtured under certain ratios. Phospholipid mixtures were dissolved in chloroform, dried by N2 flow, and then vacuumed overnight to remove the trace of organic solvents. The lipids were hydrated in 10 mM HEPES and 150 mM NaCl buffer (pH 7.4) and extensively vortexed above the phase-transition temperature of phospholipid, obtaining multilamellar large vesicles (MLVs). To obtain large unilamellar vesicles (LUVs), the MLVs was exposed to five freeze-thaw cycles and pass 21 times through two polycarbonate membrane (0.1 μm) with a mini-extruder above the phase-transition temperature of phospholipids. The phospholipid concentrations were determined by phosphorus analysis.
The affinity of peptides with LUV liposomes were detected by a Nano ITC2G isothermal titration calorimeter (TA Instrument Corp., New Castle, DE, USA) at 25 °C, under HEPES buffer condition (10 mM HEPES, and 150 mM NaCl (pH 7.0)). To avoid air bubbles, peptides and LUV solutions were degassed under vacuum 500 mmHg, for 14 min before using. […]

[3] = Circular dichroism spectroscopy (helicity); type: physicochemical; conditions: for [θ]222 Benign / [θ]222 SDS in Buffer / [θ]222 50%TFE: CD, 222 nm, 75 μM peptide; for [θ]222 Benign / [θ]222 SDS in Buffer / [θ]222 50%TFE / % Helix SDS in Buffer / % Helix 50%TFE: 25 °C; for [θ]222 Benign: KP buffer (100 mM KCl, 50 mM KH2PO4/K2HPO4, pH 7.4); for [θ]222 SDS in Buffer / % Helix SDS in Buffer: KP buffer with 10 mM SDS; for [θ]222 50%TFE / % Helix 50%TFE: KP buffer with 50% TFE; for % Helix Benign / % Helix SDS in Buffer / % Helix 50%TFE: relative to molar ellipticity of PMW in 50% TFE; for % Helix Benign: KP buffer pH 7.4, 25 °C
Procedure: Peptide secondary structure was measured by CD spectroscopy on a Jasco-810 spectropolarimeter under mild buffer conditions (50 mM KH2PO4/K2HPO4, and 100 mM KCl, pH 7), in 50% TFE and under mild buffer conditions with 10 mM SDS to mimic the hydrophobic environment of the cell membrane (Figure 1 and Table 2). All peptide analogs show negligible helical structures with molar ellipticity values ranging from −5900 to −7800 under mild conditions. In contrast, all peptide analogs were induced into highly helical structures with molar ellipticity values ranging from −24,300 to −31,700 in the hydrophobic environment of 50% TFE and molar ellipticity values ranging from −17,800 to −27,300 in the hydrophobic buffer environment in the presence of 10 mM SDS. […] It is obvious that the tryptophan residue played an important role in stabilizing the helical structure at the N-terminus or in the middle position of the peptide sequence.
Circular dichroism (CD) spectra were acquired with a 0.02 cm path length quartz cuvette on a Jasco J-810 spectropolarimeter (Jasco, Easton, MD, USA) at 25 °C as described previously. The concentration of 75 μM peptides was measured in benign buffer (50 mM KH2PO4/K2HPO4, and 100 mM KCl (pH 7.4)), benign buffer with 50% TFE and benign buffer with 10 mM SDS at 25 °C. The mean residue molar ellipticities were calculated by the equation [θ] = θ/10lCMn and θ is the ellipticity in millidegrees, l is the optical path length of the cuvette in centimeters, CM is the peptide concentration in mole/liter, and n is the number of residues in the peptide. The values of mean residue molar ellipticities of the peptide analogs at 222 nm were used to determine the relative helicity of the peptides.

[4] = RP-HPLC retention time (relative hydrophobicity); type: physicochemical; conditions: measure of relative hydrophobicity, Zorbax 300 SB-C8 150 × 4.6 mm, linear AB gradient 1% acetonitrile/min, 0.1% TFA, 1 mL/min
Procedure: The relative hydrophobicity of the peptides was determined by measuring their RP-HPLC retention times at 25 °C. The retention times of peptides are highly sensitive to the helicity of peptides upon the interaction between the peptide with the hydrophobic environment of the column matrix. From Table 2, the relative hydrophobicity of peptide analogs is in the order PCW < PMW < PNW. […] It is well known that the chromatography conditions characteristic of RP-HPLC (hydrophobic stationary phase, non-polar eluting solvent) induce helical structures in potentially helical peptides in a manner similar to that of the helix-inducing solvent trifloroethanol (TFE).
Peptide samples were analyzed on a Shimadzu LC-20A HPLC column. Runs were performed on a Zorbax 300 SB-C8 column (150 × 4.6 mm ID, 5 μm particle size, 300Å pore size) from Agilent Technologies, using a linear AB gradient (1% acetonitrile/min) and a flow rate of 1 mL/min, in which eluent A was 0.1% aqueous TFA in water and eluent B was 0.1% TFA in acetonitrile. Temperature profiling analyses during RP-HPLC were performed in 5 °C increments, from 5 °C to 80 °C, as described previously.

human red blood cells = type: cell-based; conditions: red cells of human, 1 h
Procedure: Peptide samples were serially diluted by PBS in 96-well plates (round bottom) to give a volume of 70 μL sample solution in each well. Human erythrocytes anticoagulated by EDTAK2 were collected by centrifugation (1000 rpm) for 5 min, and washed twice by PBS, then diluted to a concentration of 2% in PBS. 70 μL of 2% erythrocytes were added to each well to give a final concentration of 1% human erythrocytes in each well and plates were incubated at 37 °C for 1 h. The plates were then centrifuged for 10 min at 3,000 rpm and supernatant (90 μL) was transferred to a 96-well plate (flat bottom). The release of hemoglobin was determined by measuring the absorbance of the supernatant at 540 nm. The hemolytic activity was determined as the minimal peptide concentration that caused hemolysis (minimal hemolytic concentration, MHC). Erythrocytes in PBS and distilled water were used as control of 0% and 100% hemolysis, respectively.

[5] = RP-HPLC temperature profiling (peptide self-association); type: physicochemical; conditions: RP-HPLC temperature profiling 5 to 80 °C in 5 °C increments; maximal retention time difference normalised to control peptide C; Zorbax 300 SB-C8
Procedure: Figure 2 Peptide self-association ability during RP-HPLC temperature profiling. The retention behavior of the peptides was normalized to that of the random coil peptide C through the expression (tR^t − tR^5 for peptide analogs) minus (tR^t − tR^5 for control peptide C), where tR^t is the retention time at a specific temperature of the anticancer peptides or the random coil peptide, and tR^5 is the retention time at 5 °C.
We utilized the RP-HPLC temperature profiling technique to determine the peptide self-association ability in aqueous solution which we believe is a very important parameter to understand anticancer activity. When the self-association ability of a peptide is too strong in aqueous solution, it could decrease the ability of the peptide to dissociate and penetrate into membranes to kill target cells. […] The curves were normalized with the control peptide C which is a monomeric random coil peptide in both aqueous and hydrophobic media, showing only the general temperature effects. The peptide self-association parameter (PA) is the maximum change in peptide retention time relative to the control peptide C, to quantify the self-association ability of peptides in solution. The details of how to determine peptide self-association parameter were reported previously. […]
Peptide samples were analyzed on a Shimadzu LC-20A HPLC column. […]

Row | IC50 (HeLa cells) [nM] | [θ]222 Benign [3] [degree cm^2 dmol^−1] | [θ]222 SDS in Buffer [3] | [θ]222 50%TFE [3] [degree.cm^2.dmol^−1] | % Helix Benign [3] [%] | % Helix SDS in Buffer [3] [%] | % Helix 50%TFE [3] [%] | tR (retention time at 25 °C by RP-HPLC) [4] [min] | PA (association parameter) [5] [min] | Structure (SMILES) | affinity constant Ka to DMPC LUVs [1] [M⁻¹] | Ka (affinity constant) ([1]; 10 mM HEPES, 150 mM NaCl pH 7.0) | Ka (affinity constant) [2] | MHC (minimal hemolytic concentration) (human red blood cells) [µM]
1 | 2330 ± 120 | −5900 | −17,800 degree cm^2 dmol^−1 | −24300 | 18 | 56 | 76 | 45.6 | 4.5 | CC[C@H](C)[C@H](NC(=O)[C@H](CCCCN)NC(C)=O)C(=O)N[C@@H](CCCCN)C(=O)N[C@@H](CO)C(=O)N[C@@H](Cc1ccccc1)C(=O)N[C@@H](CC(C)C)C(=O)N[C@@H](CCCCN)C(=O)N[C@H](C(=O)N[C@@H](Cc1ccccc1)C(=O)N[C@@H](CCCCN)C(=O)N[C@@H](CO)C(=O)N[C@@H](CC(C)C)C(=O)N[C@@H](CCCCN)C(=O)N[C@@H](CCCCN)C(=O)N[C@H](C(=O)N[C@H](C(=O)N[C@@H](CC(C)C)C(=O)N[C@@H](Cc1c[nH]cn1)C(=O)N[C@H](C(=O)N[C@@H](CC(C)C)C(=O)N[C@@H](CC(C)C)C(=O)N[C@@H](CCCCN)C(=O)N[C@@H](C)C(=O)N[C@@H](Cc1c[nH]c2ccccc12)C(=O)N[C@@H](CO)C(=O)N[C@@H](CO)C(N)=O)[C@@H](C)O)C(C)C)[C@@H](C)O)[C@@H](C)O [PCW] | 4150 | 4.15 [M]^−1× 10^3 | 17.70 [M]^−1× 10^3 | 10.41 ± 0.01
2 | 2470 ± 180 | −7400 | −25,050 degree cm^2 dmol^−1 | −31900 | 23 | 79 | 100 | 46.5 | 5.3 | CC[C@H](C)[C@H](NC(=O)[C@H](C)NC(=O)[C@H](CCCCN)NC(=O)[C@H](CC(C)C)NC(=O)[C@H](CC(C)C)NC(=O)[C@@H](NC(=O)[C@H](Cc1c[nH]cn1)NC(=O)[C@H](CC(C)C)NC(=O)[C@@H](NC(=O)[C@@H](NC(=O)[C@H](CCCCN)NC(=O)[C@H](CCCCN)NC(=O)[C@H](Cc1c[nH]c2ccccc12)NC(=O)[C@H](CO)NC(=O)[C@H](CCCCN)NC(=O)[C@H](Cc1ccccc1)NC(=O)[C@@H](NC(=O)[C@H](CCCCN)NC(=O)[C@H](CC(C)C)NC(=O)[C@H](Cc1ccccc1)NC(=O)[C@H](CO)NC(=O)[C@H](CCCCN)NC(=O)[C@@H](NC(=O)[C@H](CCCCN)NC(C)=O)[C@@H](C)CC)[C@@H](C)O)[C@@H](C)O)C(C)C)[C@@H](C)O)C(=O)N[C@@H](CO)C(=O)N[C@@H](CO)C(N)=O [PMW] | – | – | – | 10.41 ± 0.01
